# Measurements: US20250127753A1, “PHARMACEUTICAL APPLICATION OF DIMYRICETIN-YL-DISELENIDE IN TUMORS” (Shanghai Spark Pharmaceutical Co., Ltd., priority 2023, published 2025)
# Assays:
# HCC827 = assay: In vitro cell viability (CTG), HCC827; assay type: cell-based, Human; settings: HCC827 cells, 72 hours, CTG assay
# Experimental: (§1) Collect cells in the exponential growth phase and count viable cells separately using a cell counter. Adjust the cell suspension to an appropriate concentration with the corresponding culture medium. Add 90 μL of the cell suspension to each well of a 96-well cell culture plate, with 3 replicate wells containing 5000 cells/well. Place the plate in an incubator at 37° C. with 5% CO2 overnight.
# (§2) On the second day, add 10 μL of dimyricetin diselenide and cisplatin to the corresponding wells. The highest final concentration of dimyricetin diselenide is 300 μg/ml (i.e., 379 μM), and the highest final concentration of cisplatin is 300 μM. A total of 9 concentrations are prepared with a 3-fold dilution.
# (§3) After 72 hours, detect cell viability using the CTG assay.
# (§4) Using GraphPad Prism 8.0 software, an S-shaped dose-survival curve was plotted with log (inhibitor) as the x-axis and response as the y-axis, adopting the Variable slope (four parameters) model to calculate the IC50 value.
# MBT-2 = assay: In vitro cell viability (CTG), MBT-2; assay type: cell-based, Mouse; settings: MBT-2 cells, 72 hours, CTG assay
# Experimental: as §1, §2, §3, §4
# Renca = assay: In vitro cell viability (CTG), Renca; assay type: cell-based, Mouse; settings: Renca cells, 72 hours, CTG assay
# Experimental: as §1, §2, §3, §4
# RM-1 = assay: In vitro cell viability (CTG), RM-1; assay type: cell-based, Mouse; settings: RM-1 cells, 72 hours, CTG assay
# Experimental: as §1, §2, §3, §4
# DU145 = assay: In vitro cell viability (CTG), DU145; assay type: cell-based, Human; settings: DU145 cells, 72 hours, CTG assay
# Experimental: as §1, §2, §3, §4
# B16-F10 = assay: In vitro cell viability (CTG), B16-F10; assay type: cell-based, Mouse; settings: B16-F10 cells, 72 hours, CTG assay
# Experimental: as §1, §2, §3, §4
# HCT116 = assay: In vitro cell viability (CTG), HCT116; assay type: cell-based, Human; settings: HCT116 cells, 72 hours, CTG assay
# Experimental: as §1, §2, §3, §4
# HCC1954 = assay: In vitro cell viability (CTG), HCC1954; assay type: cell-based, Human; settings: HCC1954 cells, 72 hours, CTG assay
# Experimental: as §1, §2, §3, §4
# H22 = assay: In vitro cell viability (CTG), H22; assay type: cell-based, Mouse; settings: H22 cells, 72 hours, CTG assay
# Experimental: as §1, §2, §3, §4
# [1] = tested on: H22 subcutaneous transplanted tumor; assay: Pharmacodynamics of subcutaneous transplanted tumor in vivo (H22); design: species or system BALB/c mice
# Experimental: • Animal species and strain: BALB/c mice • Drug administration history: None • Gender and age: Female, 6-7 weeks old • Breeder/supplier: Shanghai Jihui Laboratory Animal Breeding Co., Ltd. or other qualified suppliers • Experimental facility: Pengli Biology Animal Facility • Acclimation period: 3-7 days • Number of animals: 42 • Housing: SPF (Specific Pathogen Free) area • Indoor temperature: 20-26° C. • Indoor relative humidity: 40-70% • Lighting: Fluorescent lighting, 12 hours on (08:00-20:00) and 12 hours off • Animal housing: 2-6 mice per cage (same treatment group) • Food: Ad libitum access to irradiated feed (supplied by Jiangsu Xie Tong Pharmaceutical Bioengineering Co., Ltd., China) • Water: Ad libitum access to drinking water (tap water treated by reverse osmosis or autoclaving and acidified)
# BALB/c mice were purchased from Shanghai Jihui Laboratory Animal Breeding Co., Ltd. for the H22 efficacy experiment. The animals were free of specific pathogens and arrived at Pengli Biology Animal Facility at approximately 5-6 weeks of age. The proposed animal handling procedures for the experimental protocol will be reviewed and approved by the IACUC (Institutional Animal Care and Use Committee) of Pengli Biology before the start of the experiment.
# The H22 cell line used in this experiment was cultured in RPMI-1640 medium supplemented with 10% FBS in a CO2 incubator at 37° C. Prior to continuous culturing for ten passages, approximately 3×10^6 H22 cells were suspended in PBS and subcutaneously inoculated into each mouse at a volume of 100 μL. Mice were anesthetized with 3-4% isoflurane before inoculation.
# When tumors grew to an average size of approximately 50-80 mm3, tumor-bearing mice were randomly divided into 4 groups of 8 mice each based on body weight and tumor size. The day of group assignment and drug administration was defined as Day 0. The grouping and dosing regimen are outlined in the table below.
# Tumor Volume: Measure the tumor volume twice weekly after grouping for a consecutive 4 weeks. The calculation method for tumor volume (V) is as follows: V=(Length×Width^2)/2. The relative tumor volume (RTV) for each nude mouse is calculated as: RTV=Vt/V0, where Vt is the measured volume for each day and V0 is the volume at the start of treatment.
# Relative Tumor Proliferation Rate (T/C %): Used to evaluate the antitumor activity of the drug. The relative tumor proliferation rate T/C (%) is calculated as the mean RTV of the treatment group (T) divided by the mean RTV of the negative control group (C), multiplied by 100%.
# Tumor Growth Inhibition (TG1%): TG1%=(1−T/C)×100%, where T is the mean RTV of the treatment group and C is the mean RTV of the negative control group.
# Panc 02 = assay: In vitro cell viability (CTG), Panc 02; assay type: cell-based, Mouse; settings: Pance 02 cells, 72 hours, CTG assay
# Experimental: as §1, §2, §3, §4
# T24 = assay: In vitro cell viability (CTG), T24; assay type: cell-based, Human; settings: T24 cells, 72 hours, CTG assay
# Experimental: as §1, §2, §3, §4
# LL/2(LLC1) = assay: In vitro cell viability (CTG), LL/2(LLC1); assay type: cell-based, Mouse; settings: LL/2(LLC1) cells, 72 hours, CTG assay
# Experimental: as §1, §2, §3, §4
# CT-26.WT = assay: In vitro cell viability (CTG), CT-26.WT; assay type: cell-based, Mouse; settings: CT-26.WT cells, 72 hours, CTG assay
# Experimental: as §1, §2, §3, §4
# A375 = assay: In vitro cell viability (CTG), A375; assay type: cell-based, Human; settings: A375 cells, 72 hours, CTG assay
# Experimental: as §1, §2, §3, §4
# tumor cells = assay: In vitro cell experiment, overall statement on the tumor cell panel; assay type: cell-based; settings: 21 tumor cell lines, 72 hours, CTG assay
# Experimental: as §1, §2, §3, §4
# SK-OV-3 = assay: In vitro cell viability (CTG), SK-OV-3; assay type: cell-based, Human; settings: SK-OV-3 cells, 72 hours, CTG assay
# Experimental: as §1, §2, §3, §4
# Hep G2 = assay: In vitro cell viability (CTG), Hep G2; assay type: cell-based, Human; settings: Hep G2 cells, 72 hours, CTG assay
# Experimental: as §1, §2, §3, §4
# MFC = assay: In vitro cell viability (CTG), MFC; assay type: cell-based, Mouse; settings: MFC cells, 72 hours, CTG assay
# Experimental: as §1, §2, §3, §4
# MKN45 = assay: In vitro cell viability (CTG), MKN45; assay type: cell-based, Human; settings: MKN45 cells, 72 hours, CTG assay
# Experimental: as §1, §2, §3, §4
# PANC-1 = assay: In vitro cell viability (CTG), PANC-1; assay type: cell-based, Human; settings: PANC-1 cells, 72 hours, CTG assay
# Experimental: as §1, §2, §3, §4
# EMT-6 = assay: In vitro cell viability (CTG), EMT-6; assay type: cell-based, Mouse; settings: EMT-6 cells, 72 hours, CTG assay
# Experimental: as §1, §2, §3, §4
# 786-O = assay: In vitro cell viability (CTG), 786-O; assay type: cell-based, Human; settings: 786-O cells, 72 hours, CTG assay
# Experimental: as §1, §2, §3, §4
compound,measurement,setting,value
Dimyricetin-yl-diselenide,IC50,HCC827,10 µM
same,IC50,MBT-2,10.8 µM
same,IC50,Renca,5.17 µM
same,IC50,RM-1,5.12 µM
same,IC50,DU145,8.79 µM
same,IC50,B16-F10,13.1 µM
same,IC50,HCT116,5.52 µM
same,IC50,HCC1954,9.86 µM
same,IC50,H22,6.64 µM
same,tumor inhibition compared with the positive control (cisplatin),[1]; 40 mg/kg dose group,better tumor inhibition than the positive control
same,TV (tumor volume),"[1]; G3, 40 mg/kg s.c. QD, 0 day (baseline)",75.71 mm^3
same,TGI (tumor growth inhibition),"[1]; G3, 40 mg/kg s.c. QD, 3 days",9.88%
same,TV (tumor volume),"[1]; G3, 40 mg/kg s.c. QD, 3 days",257.17 mm^3
same,TGI (tumor growth inhibition),"[1]; G3, 40 mg/kg s.c. QD, 5 days",5.58%
same,TV (tumor volume),"[1]; G3, 40 mg/kg s.c. QD, 5 days",355.24 mm^3
same,TGI (tumor growth inhibition),"[1]; G3, 40 mg/kg s.c. QD, 7 days",34.02%
same,TV (tumor volume),"[1]; G3, 40 mg/kg s.c. QD, 7 days",532.85 mm^3
same,TGI (tumor growth inhibition),"[1]; G3, 40 mg/kg s.c. QD, 10 days",41.86%
same,TV (tumor volume),"[1]; G3, 40 mg/kg s.c. QD, 10 days",711.79 mm^3
same,TGI (tumor growth inhibition),"[1]; G3, 40 mg/kg s.c. QD, 12 days",38.64%
same,TV (tumor volume),"[1]; G3, 40 mg/kg s.c. QD, 12 days",1066.44 mm^3
same,TGI (tumor growth inhibition),"[1]; G3, 40 mg/kg s.c. QD, 14 days",60.23%
same,TV (tumor volume),"[1]; G3, 40 mg/kg s.c. QD, 14 days",1108.65 mm^3
same,TV (tumor volume),"[1]; G4, 20 mg/kg s.c. QD, 0 day (baseline)",75.31 mm^3
same,TGI (tumor growth inhibition),"[1]; G4, 20 mg/kg s.c. QD, 3 days",29.01%
same,TV (tumor volume),"[1]; G4, 20 mg/kg s.c. QD, 3 days",218.25 mm^3
same,TGI (tumor growth inhibition),"[1]; G4, 20 mg/kg s.c. QD, 5 days",19.28%
same,TV (tumor volume),"[1]; G4, 20 mg/kg s.c. QD, 5 days",314.27 mm^3
same,TGI (tumor growth inhibition),"[1]; G4, 20 mg/kg s.c. QD, 7 days",32.35%
same,TV (tumor volume),"[1]; G4, 20 mg/kg s.c. QD, 7 days",544.04 mm^3
same,TGI (tumor growth inhibition),"[1]; G4, 20 mg/kg s.c. QD, 10 days",39.14%
same,TV (tumor volume),"[1]; G4, 20 mg/kg s.c. QD, 10 days",741.18 mm^3
same,TGI (tumor growth inhibition),"[1]; G4, 20 mg/kg s.c. QD, 12 days",29.67%
same,TV (tumor volume),"[1]; G4, 20 mg/kg s.c. QD, 12 days",1210.83 mm^3
same,TGI (tumor growth inhibition),"[1]; G4, 20 mg/kg s.c. QD, 14 days",43.53%
same,TV (tumor volume),"[1]; G4, 20 mg/kg s.c. QD, 14 days",1542.11 mm^3
same,inhibitory effect on the liver cancer tumor model in vivo,"[1]; H22 model, 40 and 20 mg/kg s.c.",significant inhibitory effect
same,IC50,Panc 02,14.3 µM
same,IC50,T24,7.69 µM
same,IC50,LL/2(LLC1),14.6 µM
same,IC50,CT-26.WT,5.65 µM
same,IC50,A375,5.2 µM
same,inhibitory effect on tumor cells in vitro,tumor cells,significant inhibitory effect
same,IC50,SK-OV-3,6.52 µM
same,IC50,Hep G2,12.6 µM
same,IC50,MFC,9.55 µM
same,IC50,MKN45,12 µM
same,IC50,PANC-1,10.3 µM
same,IC50,EMT-6,3.16 µM
same,IC50,786-O,5.14 µM
"N.N.[Cl][Pt][Cl] [Cisplatin, reference compound]",IC50,HCC827,15.1 µM
same,IC50,MBT-2,9.91 µM
same,IC50,Renca,6.03 µM
same,IC50,RM-1,3.83 µM
same,IC50,DU145,3.59 µM
same,IC50,B16-F10,16.9 µM
same,IC50,HCT116,7.01 µM
same,IC50,HCC1954,13.2 µM
same,IC50,H22,2.17 µM
same,TV (tumor volume),"[1]; G2, 1 mg/kg i.v. BIW, 0 day (baseline)",75.96 mm^3
same,TGI (tumor growth inhibition),"[1]; G2, 1 mg/kg i.v. BIW, 3 days",−3.49%
same,TV (tumor volume),"[1]; G2, 1 mg/kg i.v. BIW, 3 days",288.49 mm^3
same,TGI (tumor growth inhibition),"[1]; G2, 1 mg/kg i.v. BIW, 5 days",6.13%
same,TV (tumor volume),"[1]; G2, 1 mg/kg i.v. BIW, 5 days",351.18 mm^3
same,TGI (tumor growth inhibition),"[1]; G2, 1 mg/kg i.v. BIW, 7 days",22.78%
same,TV (tumor volume),"[1]; G2, 1 mg/kg i.v. BIW, 7 days",597.48 mm^3
same,TGI (tumor growth inhibition),"[1]; G2, 1 mg/kg i.v. BIW, 10 days",30.23%
same,TV (tumor volume),"[1]; G2, 1 mg/kg i.v. BIW, 10 days",821.76 mm^3
same,TGI (tumor growth inhibition),"[1]; G2, 1 mg/kg i.v. BIW, 12 days",36.46%
same,TV (tumor volume),"[1]; G2, 1 mg/kg i.v. BIW, 12 days",1081.49 mm^3
same,TGI (tumor growth inhibition),"[1]; G2, 1 mg/kg i.v. BIW, 14 days",39.56%
same,TV (tumor volume),"[1]; G2, 1 mg/kg i.v. BIW, 14 days",1627.00 mm^3
same,IC50,Panc 02,9.86 µM
same,IC50,T24,3.71 µM
same,IC50,LL/2(LLC1),10.6 µM
same,IC50,CT-26.WT,7.48 µM
same,IC50,A375,5.36 µM
same,IC50,Hep G2,8.49 µM
same,IC50,MFC,5.96 µM
same,IC50,MKN45,6.7 µM
same,IC50,PANC-1,13.8 µM
same,IC50,EMT-6,6.58 µM
same,IC50,786-O,3.68 µM
